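In this assay, cells in 96-well plates receive the compound at five concentrations for 48 hours. Endpoints are linearly interpolated between the surrounding concentrations. The concentration for 50% growth inhibition is given as GI50.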 Calls of active or inactive are those of the source. No stated cut-off is given here; in the data, active = GI50 up to about 1.1 µM and inactive = higher.
How the values were obtained:
Test in all cases: growth of human tumour cells (NCI), 48 h
HT-29 = tested on: HT-29
MDA-MB-435 = tested on: MDA-MB-435
OVCAR-5 = tested on: OVCAR-5
OVCAR-3 = tested on: OVCAR-3
DU-145 = tested on: DU-145
LOX IMVI = tested on: LOX IMVI
HL-60 = tested on: HL-60
NCI/ADR-RES = tested on: NCI/ADR-RES
MCF7 = tested on: MCF7
SNB-19 = tested on: SNB-19
A498 = tested on: A498
MDA-MB-231 = tested on: MDA-MB-231
HCT-15 = tested on: HCT-15
MDA-N = tested on: MDA-N
T47D = tested on: T47D
U-251 = tested on: U-251
SK-MEL-5 = tested on: SK-MEL-5
HCT-116 = tested on: HCT-116
NCI-H23 = tested on: NCI-H23
IGROV-1 = tested on: IGROV-1
OVCAR-8 = tested on: OVCAR-8
RPMI-8226 = tested on: RPMI-8226
SW-620 = tested on: SW-620
SK-MEL-2 = tested on: SK-MEL-2
SN12C = tested on: SN12C
EKVX = tested on: EKVX
SK-OV-3 = tested on: SK-OV-3
TK-10 = tested on: TK-10
SF-295 = tested on: SF-295
UO-31 = tested on: UO-31
SR = tested on: SR
COLO 205 = tested on: COLO 205
PC-3 = tested on: PC-3
SF-539 = tested on: SF-539
ACHN = tested on: ACHN
SK-MEL-28 = tested on: SK-MEL-28
NCI-H226 = tested on: NCI-H226
Hs-578T = tested on: Hs-578T
SF-268 = tested on: SF-268
RXF 393 = tested on: RXF 393
786-0 = tested on: 786-0
Malme-3M = tested on: Malme-3M
MOLT-4 = tested on: MOLT-4
CAKI-1 = tested on: CAKI-1
CCRF-CEM = tested on: CCRF-CEM
KM12 = tested on: KM12
BT-549 = tested on: BT-549
M14 = tested on: M14
K562 = tested on: K562
UACC-62 = tested on: UACC-62
UACC-257 = tested on: UACC-257
NCI-H460 = tested on: NCI-H460
NCI-H522 = tested on: NCI-H522
OVCAR-4 = tested on: OVCAR-4
A549 = tested on: A549
HCC 2998 = tested on: HCC 2998
HOP-92 = tested on: HOP-92
SNB-75 = tested on: SNB-75
HOP-62 = tested on: HOP-62

O=C(c1cccs1)N(C(=S)OCc1ccccn1)c1ccccc1
GI50 (HT-29): 33.2 µM (inactive)
GI50 (MDA-MB-435): > 100 µM (inactive)
GI50 (OVCAR-5): 23.4 µM (inactive)
GI50 (OVCAR-3): 76.9 µM (inactive)
GI50 (DU-145): 69.2 µM (inactive)
GI50 (LOX IMVI): 96.4 µM (inactive)
GI50 (HL-60): 38.4 µM (inactive)
GI50 (NCI/ADR-RES): 35.2 µM (inactive)
GI50 (MCF7): 68.4 µM (inactive)
GI50 (SNB-19): > 100 µM (inactive)
GI50 (A498): 75.5 µM (inactive)
GI50 (MDA-MB-231): 59.7 µM (inactive)
GI50 (HCT-15): 53.2 µM
GI50 (MDA-N): > 100 µM (inactive)
GI50 (T47D): 53.8 µM (inactive)
GI50 (U-251): 92.5 µM (inactive)
GI50 (SK-MEL-5): 51.2 µM (inactive)
GI50 (HCT-116): 63.5 µM (inactive)
GI50 (NCI-H23): 84.9 µM (inactive)
GI50 (IGROV-1): 28.8 µM (inactive)
GI50 (OVCAR-8): 56.5 µM (inactive)
GI50 (RPMI-8226): 37.4 µM (inactive)
GI50 (SW-620): 92 µM (inactive)
GI50 (SK-MEL-2): > 100 µM (inactive)
GI50 (SN12C): 50.7 µM (inactive)
GI50 (EKVX): 14.4 µM (inactive)
GI50 (SK-OV-3): > 100 µM (inactive)
GI50 (TK-10): > 100 µM (inactive)
GI50 (SF-295): 40.4 µM (inactive)
GI50 (UO-31): 32.6 µM (inactive)
GI50 (SR): > 100 µM (inactive)
GI50 (COLO 205): 88.1 µM (inactive)
GI50 (PC-3): 47.8 µM (inactive)
GI50 (SF-539): 38.5 µM (inactive)
GI50 (ACHN): 50.6 µM (inactive)
GI50 (SK-MEL-28): > 100 µM (inactive)
GI50 (NCI-H226): 32.9 µM (inactive)
GI50 (Hs-578T): 38.3 µM (inactive)
GI50 (SF-268): > 100 µM (inactive)
GI50 (RXF 393): 31 µM (inactive)
GI50 (786-0): > 100 µM (inactive)
GI50 (Malme-3M): 18.6 µM (inactive)
GI50 (MOLT-4): 45.7 µM (inactive)
GI50 (CAKI-1): > 100 µM (inactive)
GI50 (CCRF-CEM): 40.6 µM (inactive)
GI50 (KM12): 84.9 µM (inactive)
GI50 (BT-549): 47.3 µM (inactive)
GI50 (M14): > 100 µM (inactive)
GI50 (K562): 42 µM (inactive)
GI50 (UACC-62): > 100 µM (inactive)
GI50 (UACC-257): > 100 µM (inactive)
GI50 (NCI-H460): 70.3 µM (inactive)

C=C1CC(COc2ccc3ccc(=O)oc3c2)(c2ccccc2)OC1=O (centres undefined)
GI50 (HT-29): 0.627 µM (active)
GI50 (MDA-MB-435): 2.61 µM (inactive)
GI50 (OVCAR-5): 5.87 µM (inactive)
GI50 (NCI-H522): 0.501 µM (active)
GI50 (OVCAR-3): 1.61 µM (inactive)
GI50 (DU-145): 2.77 µM (inactive)
GI50 (LOX IMVI): 0.942 µM (active)
GI50 (HL-60): 0.0803 µM (active)
GI50 (NCI/ADR-RES): 2.48 µM (inactive)
GI50 (MCF7): 1.26 µM (inactive)
GI50 (SNB-19): 15 µM (inactive)
GI50 (MDA-MB-231): 2.52 µM (inactive)
GI50 (HCT-15): 1.87 µM
GI50 (MDA-N): 1.11 µM (active)
GI50 (T47D): 1.87 µM (inactive)
GI50 (U-251): 8.93 µM (inactive)
GI50 (SK-MEL-5): 1.47 µM (inactive)
GI50 (HCT-116): 0.597 µM (active)
GI50 (NCI-H23): 0.912 µM (active)
GI50 (IGROV-1): 1.64 µM (inactive)
GI50 (OVCAR-4): 1.49 µM (inactive)
GI50 (OVCAR-8): 2.21 µM (inactive)
GI50 (A549): 10.6 µM (inactive)
GI50 (RPMI-8226): 0.143 µM (active)
GI50 (SW-620): 0.316 µM (active)
GI50 (SK-MEL-2): 1.53 µM (inactive)
GI50 (HCC 2998): 1.27 µM (inactive)
GI50 (SN12C): 2.73 µM (inactive)
GI50 (EKVX): 7.5 µM (inactive)
GI50 (SK-OV-3): 5.02 µM (inactive)
GI50 (TK-10): 1.54 µM (inactive)
GI50 (SF-295): 6.78 µM (inactive)
GI50 (UO-31): 5.19 µM (inactive)
GI50 (SR): 0.867 µM (active)
GI50 (COLO 205): 0.625 µM (active)
GI50 (PC-3): 2.69 µM (inactive)
GI50 (SF-539): 3.46 µM (inactive)
GI50 (ACHN): 2.01 µM (inactive)
GI50 (SK-MEL-28): 2.3 µM (inactive)
GI50 (HOP-92): 0.685 µM (active)
GI50 (NCI-H226): 5.3 µM (inactive)
GI50 (SNB-75): 5.92 µM (inactive)
GI50 (Hs-578T): 4.03 µM (inactive)
GI50 (SF-268): 3.27 µM (inactive)
GI50 (786-0): 1.46 µM (inactive)
GI50 (Malme-3M): 2.33 µM (inactive)
GI50 (MOLT-4): 1.25 µM (inactive)
GI50 (CAKI-1): 0.885 µM (active)
GI50 (CCRF-CEM): 0.233 µM (active)
GI50 (KM12): 3.27 µM (inactive)
GI50 (BT-549): 1.54 µM (inactive)
GI50 (M14): 1.18 µM (inactive)
GI50 (K562): 0.266 µM (active)
GI50 (UACC-62): 1.45 µM (inactive)
GI50 (UACC-257): 1.71 µM (inactive)
GI50 (HOP-62): 11.6 µM (inactive)
GI50 (NCI-H460): 10.5 µM (inactive)

Reference: ChEMBL document CHEMBL1201862, “PubChem BioAssay data set” (2004)
